Measurements published in US12428427B2, “Methods and compositions for targeting PD-L1” (Aligos Therapeutics, Inc., priority 2021, dated 2025).

What was measured:
PDL1/PD1 = PDL1/PD1 (Homo sapiens, UniProt Q9NZQ7); experiment: PDL1/PD1 Binding Assay; details: PDL1-6×His 0.3 nM, PD1-Fc-Avi-Biotin 2.5 nM, Acceptor/Donor beads; read-out: PD-1/PD-L1 PPI IC50
Method: Compounds to be tested were serially diluted in DMSO, and further diluted in assay buffer (25 mM Hepes pH 7.4, 150 mM NaCl, 0.005% Tween 20, BSA 0.01%). Diluted compounds were added to the wells with final concentration of DMSO at 1%. PDL1-6×His protein was added to the wells, mixed well with compound. The plates were incubated for 30 min at room temperature. PD1-Fc-Avi-Biotin protein was added to the wells. Final concentration of PDL1 and PD1 protein is 0.3 nM and 2.5 nM, respectively. After a binding time of 30 min at room temperature, Anti-6×His Acceptor beads (final concentration 20 ug/ml) were added to the wells, and the incubation continued for 1 h. Streptavidin Donor beads (final concentration 20 ug/mL) were added at reduced light. The plates were sealed with foil and incubated in the dark for additional 1 h or overnight before reading on an Envision reader. The IC50 values were determined by fitting the curves using a four-parameter equation in Graphpad Prism 8.

PD-1/PD-L1 interaction = target: T1, PD-1/PD-L1 interaction (Homo sapiens, UniProt Q9NZQ7); experiment: PD-1/PD-L1 NFAT Reporter Assay; type: cell-based; details: co-culture of PD-L1 expressing CHO cells and PD-1 overexpressing Jurkat cells, 6 hrs, NFAT luciferase
T1 construct: expressed in transfected cells; Jurkat cells (PD-1 plus NFAT-luciferase)
Method: Blocking the PD-1/PD-L1 interaction will release the inhibitory signal and results in TCR signaling and NFAT-mediated luciferase activity.
CHO cells expressing surface-bound anti-CD3 antibodies and PD-L1 were first seeded overnight and treated with the compounds. Jurkat cells overexpressing PD-1 and a luciferase construct under NFAT promoter were then immediately seeded on the monolayer of CHO cells. The co-culture was then incubated for 6 hrs at 37° C. Luciferase activity was assessed by adding the ONE-Glo reagent and measuring luminescence with a plate reader. EC50 values were determined from the fit of the dose-response curves.

T1 sequence (Q9NZQ7 19-290): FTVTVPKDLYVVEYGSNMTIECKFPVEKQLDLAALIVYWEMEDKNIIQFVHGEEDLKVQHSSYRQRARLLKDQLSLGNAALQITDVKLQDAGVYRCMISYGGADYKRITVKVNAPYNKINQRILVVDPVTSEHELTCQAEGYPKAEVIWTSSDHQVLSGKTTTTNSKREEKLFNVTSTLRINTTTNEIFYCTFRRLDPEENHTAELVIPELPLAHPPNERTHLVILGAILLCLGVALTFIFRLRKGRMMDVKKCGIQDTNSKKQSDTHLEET
Chain of PDL1/PD1 (Q9NZQ7 19-238 limits assumed): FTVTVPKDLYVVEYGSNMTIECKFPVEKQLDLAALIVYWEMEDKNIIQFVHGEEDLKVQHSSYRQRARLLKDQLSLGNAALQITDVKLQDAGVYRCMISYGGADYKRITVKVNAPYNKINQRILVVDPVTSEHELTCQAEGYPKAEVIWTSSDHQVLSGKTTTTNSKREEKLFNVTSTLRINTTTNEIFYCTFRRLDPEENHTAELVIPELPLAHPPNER

Structure (SMILES)	IC50 (PDL1/PD1)	EC50 (PD-1/PD-L1 interaction)
COc1nc(-c2cccc(-c3cccc(NC(=O)c4ccnn(C)c4=O)c3Cl)c2Cl)ccc1CN1CCN(C(=O)OC(C)(C)C)[C@H](C(=O)O)C1 [Compound C-23]	≤ 10 nM	> 5000 nM
COc1nc(-c2cccc(-c3cccc(NC(=O)c4ccnn(C)c4=O)c3Cl)c2Cl)ccc1CN1CCN(C(=O)OC(C)(C)C)[C@@H](C(=O)O)C1 [Compound C-24]	≤ 10 nM	100 to 1000 nM
COc1nc(-c2cccc(-c3cccc(NC(=O)c4ccnn(C)c4=O)c3Cl)c2Cl)ccc1CNCCCC(=O)O [Compound C-25]	≤ 10 nM	10 to 100 nM
COc1nc(-c2cccc(-c3cccc(NC(=O)c4ccnn(C)c4=O)c3Cl)c2Cl)ccc1CN1CC2(C(=O)O)CCC1CC2 [Compound C-27]	≤ 10 nM	100 to 1000 nM
COc1nc(-c2cccc(-c3cccc(NC(=O)c4ccnn(C)c4=O)c3Cl)c2Cl)ccc1CN[C@H](C(=O)O)C(C)C [Compound C-28]	≤ 10 nM	100 to 1000 nM
COc1nc(-c2cccc(-c3cccc(NC(=O)c4ccnn(C)c4=O)c3Cl)c2Cl)ccc1CN[C@@H](C)C(=O)O [Compound C-29]	≤ 10 nM	10 to 100 nM
COc1nc(-c2cccc(-c3cccc(NC(=O)c4ccnn(C)c4=O)c3Cl)c2Cl)ccc1CN1CCO[C@@H](C(=O)O)C1 [Compound C-30]	≤ 10 nM	100 to 1000 nM
COc1nc(-c2cccc(-c3cccc(NC(=O)c4ccnn(C)c4=O)c3Cl)c2Cl)ccc1CN1C[C@H](C(=O)O)C(C)(C)C1 [Compound C-31]	≤ 10 nM	10 to 100 nM
COc1nc(-c2cccc(-c3cccc(NC(=O)c4ccnn(C)c4=O)c3Cl)c2Cl)ccc1CN1CCC[C@@H]1CC(=O)O [Compound C-33]	≤ 10 nM	10 to 100 nM
COc1nc(-c2cccc(-c3cccc(NC(=O)c4ccnn(C)c4=O)c3Cl)c2Cl)ccc1CN1CCC[C@H]1CC(=O)O [Compound C-34]	≤ 10 nM	10 to 100 nM
COc1nc(-c2cccc(-c3cccc(NC(=O)c4ccnn(C)c4=O)c3Cl)c2Cl)ccc1CNCC(C)(C)C(=O)O [Compound C-35]	≤ 10 nM	10 to 100 nM
COc1nc(-c2cccc(-c3cccc(NC(=O)c4ccnn(C)c4=O)c3Cl)c2Cl)ccc1CNC[C@H](C)C(=O)O [Compound C-36]	≤ 10 nM	10 to 100 nM
COc1nc(-c2cccc(-c3cccc(NC(=O)c4ccnn(C)c4=O)c3Cl)c2Cl)ccc1CNC[C@@H](C)C(=O)O [Compound C-37]	≤ 10 nM	10 to 100 nM
COc1nc(-c2cccc(-c3cccc(NC(=O)c4ccnn(C)c4=O)c3Cl)c2Cl)ccc1CNC[C@H](O)C(=O)O [Compound C-38]	≤ 10 nM	10 to 100 nM
COc1nc(-c2cccc(-c3cccc(NC(=O)c4ccnn(C)c4=O)c3Cl)c2Cl)ccc1CNC1CCC[C@@H]1C(=O)O (stereo partly shown) [Compound C-39]	≤ 10 nM	10 to 100 nM
COc1nc(-c2cccc(-c3cccc(NC(=O)c4ccnn(C)c4=O)c3Cl)c2Cl)ccc1CN[C@H]1CCC[C@H]1C(=O)O [Compound C-40]	≤ 10 nM	100 to 1000 nM
COc1nc(-c2cccc(-c3cccc(NC(=O)c4ccnn(C)c4=O)c3Cl)c2Cl)ccc1CN1CC(O)(C(=O)O)C1 [Compound C-41]	≤ 10 nM	10 to 100 nM
COc1nc(-c2cccc(-c3cccc(NC(=O)c4ccnn(C)c4=O)c3Cl)c2Cl)ccc1CN1CC(CC(=O)O)C1 [Compound C-42]	≤ 10 nM	10 to 100 nM
COc1nc(-c2cccc(-c3cccc(NC(=O)c4ccnn(C)c4=O)c3Cl)c2Cl)ccc1CN1CCO[C@H](C(=O)O)C1 [Compound C-44]	≤ 10 nM	10 to 100 nM
COc1nc(-c2cccc(-c3cccc(NC(=O)c4ccnn(C)c4=O)c3Cl)c2Cl)ccc1CN[C@@H](CO)C(=O)O [Compound C-47]	≤ 10 nM	10 to 100 nM
COc1nc(-c2cccc(-c3cccc(NC(=O)c4ccnn(C)c4=O)c3Cl)c2Cl)ccc1CN1C[C@@H](C(=O)O)C(C)(C)C1 [Compound C-48]	≤ 10 nM	100 to 1000 nM
COc1nc(-c2cccc(-c3cccc(NC(=O)c4ccnn(C)c4=O)c3Cl)c2Cl)ccc1CN[C@@H]1CN(C(C)=O)C[C@H]1O [Compound C-49]	≤ 10 nM	10 to 100 nM
COc1nc(-c2cccc(-c3cccc(NC(=O)c4ccnn(C)c4=O)c3Cl)c2Cl)ccc1CN1CC[C@H](O)C1 [Compound C-50]	≤ 10 nM	≤ 10 nM
CCOC(=O)C1CN(Cc2ccc(-c3cccc(-c4cccc(NC(=O)c5ccnn(C)c5=O)c4C)c3Cl)nc2OC)C1 [Compound C-53]	≤ 10 nM	10 to 100 nM

Structure (SMILES)	IC50 (PDL1/PD1)	EC50 (PD-1/PD-L1 interaction)
COc1nc(-c2cccc(-c3cccc(NC(=O)c4ccnn(C)c4=O)c3C)c2Cl)ccc1CN1CC(C(=O)O)C1 [Compound C-54]	≤ 10 nM	10 to 100 nM
CCOC(=O)[C@H]1CCN(Cc2ccc(-c3cccc(-c4cccc(NC(=O)c5ccnn(C)c5=O)c4C)c3Cl)nc2OC)C1 [Compound C-55]	≤ 10 nM	10 to 100 nM
COc1nc(-c2cccc(-c3cccc(NC(=O)c4ccnn(C)c4=O)c3C)c2Cl)ccc1CN1CC[C@H](C(=O)O)C1 [Compound C-56]	≤ 10 nM	10 to 100 nM
CCOC(=O)[C@@H]1CCN(Cc2ccc(-c3cccc(-c4cccc(NC(=O)c5ccnn(C)c5=O)c4C)c3Cl)nc2OC)C1 [Compound C-57]	≤ 10 nM	10 to 100 nM
COc1nc(-c2cccc(-c3cccc(NC(=O)c4ccnn(C)c4=O)c3C)c2Cl)ccc1CN1CC[C@@H](C(=O)O)C1 [Compound C-58]	≤ 10 nM	10 to 100 nM
COc1nc(-c2cccc(-c3cccc(NC(=O)c4ccnn(C)c4=O)c3C)c2Cl)ccc1CN1CC(C)(C(=O)O)C1 [Compound C-60]	≤ 10 nM	10 to 100 nM
COC(=O)C1(F)CN(Cc2ccc(-c3cccc(-c4cccc(NC(=O)c5ccnn(C)c5=O)c4C)c3Cl)nc2OC)C1 [Compound C-61]	≤ 10 nM	10 to 100 nM
COc1nc(-c2cccc(-c3cccc(NC(=O)c4ccnn(C)c4=O)c3C)c2Cl)ccc1CN1CC(NC(C)=O)C1 [Compound C-63]	≤ 10 nM	10 to 100 nM
COc1nc(-c2cccc(-c3cccc(NC(=O)c4ccnn(C)c4=O)c3C)c2Cl)ccc1CN1CC2(C1)CN(C(C)=O)C2 [Compound C-64]	≤ 10 nM	10 to 100 nM
COc1nc(-c2cccc(-c3cccc(NC(=O)c4ccnn(C)c4=O)c3C)c2Cl)ccc1CN1CC[C@H](O)C1 [Compound C-65]	≤ 10 nM	≤ 10 nM
COc1nc(-c2cccc(-c3cccc(NC(=O)c4ccnn(C)c4=O)c3C)c2Cl)ccc1CN1CC(O)C1 [Compound C-66]	≤ 10 nM	10 to 100 nM
COc1nc(-c2cccc(-c3cccc(NC(=O)c4ccnn(C)c4=O)c3C)c2Cl)ccc1CN1CC[C@@H](O)C1 [Compound C-67]	≤ 10 nM	≤ 10 nM
COc1nc(-c2cccc(-c3cccc(NC(=O)c4ccnn(C)c4=O)c3C)c2C)ccc1CN[C@@H]1CCOC[C@H]1O [Compound C-70]	≤ 10 nM	10 to 100 nM
COc1nc(-c2cccc(-c3cccc(NC(=O)c4ccnn(C)c4=O)c3C)c2C)ccc1CNC(C)(C)CO [Compound C-73]	≤ 10 nM	> 5000 nM
COc1nc(-c2cccc(-c3cccc(NC(=O)c4ccnn(C)c4=O)c3Cl)c2Cl)c(F)cc1CN[C@@H]1CCOC[C@@H]1O [Compound C-75]	≤ 10 nM	≤ 10 nM
COc1nc(-c2cccc(-c3cccc(NC(=O)c4ccnn(C)c4=O)c3Cl)c2Cl)c(F)cc1CN1CC(C(=O)O)C1 [Compound C-76]	≤ 10 nM	10 to 100 nM
CCOC(=O)C1CN(Cc2cc(F)c(-c3cccc(-c4cccc(NC(=O)c5ccnn(C)c5=O)c4Cl)c3Cl)nc2OC)C1 [Compound C-77]	≤ 10 nM	10 to 100 nM
COC(=O)C1CN(Cc2cc(F)c(-c3cccc(-c4cccc(NC(=O)c5ccnn(C)c5=O)c4Cl)c3Cl)nc2OC)C1 [Compound C-78]	≤ 10 nM	100 to 1000 nM
CCOC(=O)C1CN(Cc2cnc(-c3cccc(-c4cccc(NC(=O)c5ccnn(C)c5=O)c4Cl)c3Cl)nc2OC)C1 [Compound C-79]	≤ 10 nM	10 to 100 nM
COc1nc(-c2cccc(-c3cccc(NC(=O)c4ccnn(C)c4=O)c3Cl)c2Cl)ncc1CN1CC(C(=O)O)C1 [Compound C-80]	≤ 10 nM	10 to 100 nM
COc1nc(-c2cccc(-c3cccc(NC(=O)c4ccnn(C)c4=O)c3Cl)c2Cl)ncc1CN[C@@H]1CCOC[C@@H]1O [Compound C-81]	≤ 10 nM	≤ 10 nM
COc1nc(-c2cccc(-c3cccc(NC(=O)c4ccnn(C)c4=O)c3Cl)c2Cl)ncc1CN1CC(O)C1 [Compound C-82]	≤ 10 nM	10 to 100 nM
COc1nc(-c2cccc(-c3cccc(NC(=O)c4ccnn(C)c4=O)c3C)c2Cl)cnc1CN1CC[C@H](O)C1 [Compound C-87]	≤ 10 nM	≤ 10 nM
